Common to all, as to format: in vitro ADME, rabbit
Series [1] in a line: Ex vivo iontophoretic delivery of fluorescein to the posterior eye segment, quantified in the vitreous by fluorometer. The note with it: for Flux (time averaged): calculated from final concentration in the vitreous; for Concentration in Vitreous: lens loaded with 0.01 mg/mL fluorescein in HEPES; for electrophoretic velocity from the data of Table 3: order of magnitude. The text has this:
(§1) Materials: Mature cadaver rabbit eyes were purchased from Pel-Freez Biologicals (Rogers, AR). The Nile Blue A dye (75% dye content) and Fluorescein were purchased from Sigma-Aldrich (St. Louis, MO). Electrode materials were made 3D printed with conductive PLA filament (Proto Pasta, Vancouver, WA). Cadaver rabbit eyes were fixed in Margo solution containing paraformaldehyde and glutaraldehyde purchased from Fisher Scientific (Hampton, NH). Soaking agents for lenses included phosphate buffered saline (PBS) or a HEPES solution purchased from Fisher Scientific (Hampton, NH). Commercial contact lenses Acuvue Oasys (14 mm diameter, 8.4 mm base curve, 0.0 power) were used in the study.
(§2) Lens Preparation: Contact lenses were loaded by soaking in a 1 mg/mL Nile Blue solution in PBS or in a 0.01 mg/mL fluorescein solution in HEPES overnight. Lenses were loaded overnight in an enclosed space to prevent photobleaching of any species. […] Both species have low molecular weights and therefore have rapid uptakes into the lenses.
(§3) Application of Electric Field: Loaded contact lenses were placed at the periphery of the cornea, on the sclera, and the two electrodes were placed over the lenses. Electrodes were attached to a power source that was set to the desired current (FIG. 8). A syringe pump was configured to gently apply a drop of PBS (≈30 μL) every 30 seconds on to the cornea and would flow to the lenses, providing a thin film to keep them hydrated. The application of PBS also served as an approximate mimic of the in vivo tear film. The submersion of the lens was also crucial to ensure that if any bubbling from electrochemically generated gases were to occur, it would be easily visible. The field was applied for the desired duration and then the power source and lenses were removed. Experiments were conducted with the lenses soaked in PBS for the anode component and HEPES for the cathode. The Nile Blue and fluorescein experiments were each conducted with three different combinations of time and current.
Quantification of Fluorescein Delivery: Delivery of fluorescein to the posterior eye segment was conducted four times for each variation of time and current. After completion, eyes were submerged in PBS for 1 hour and then refrozen. Once the eyes had completely solidified, the vitreous was removed by cutting away the rest of the eye. All samples of same time and current were combined and thawed. After thawing was complete, the vitreous was put through a 0.22 μm filter to ensure no excessive tissue was present in the system. Relative fluorescent intensity of each sample was found using a Quantech fluorometer and the corresponding concentrations of fluorescein was found through a calibration curve.
Efficient transport of fluorescein to the vitreous: The fluorescein was loaded into lenses in a HEPES solution, which alleviated the damage done to the eye during the generation of caustic species from the electrochemical reactions. In order to quantify the delivery of fluorescein to the posterior eye segment, experiments were conducted at three different combinations or time and current and were compared to a control. The electric fields chosen were 0.25 mA (high current) and 0.125 mA (low current) for either 1 hour (short time) or 2 hours (long time). After the application of the electric field to the sclera, the vitreous was harvested and fluorescence was quantified using a fluorometer. The concentrations of fluorescein were found using a calibration curve for the relative fluorescence (Table 3). Additionally in FIGS. 11A-11B, the delivery and localization of fluorescein can be seen in the posterior eye segment. Fluorescence was produced using a UV light source and observed thorough an orange filter. The regions near the cathode component show localizations of fluorescein at the exterior and interior surfaces. The final concentration in the vitreous was also used to calculate the time averaged flux of the fluorescein and the electrophoretic mobility. […]

Series [2] in a line: Ex vivo iontophoretic delivery of Nile Blue A dye through the cornea from a drug loaded contact lens (camera and confocal imaging). An excerpt:
Materials: Mature cadaver rabbit eyes were purchased from Pel-Freez Biologicals (Rogers, AR). The Nile Blue A dye was purchased from Sigma-Aldrich (St. Louis, MO) with a 75% dye content. Electrode materials were either made from generic lead-free, silver bearing solder or was 3D printed with conductive PLA filament (Proto Pasta, Vancouver, WA). Cadaver rabbit eyes were fixed in Margo solution containing paraformaldehyde and glutaraldehyde purchased from Fisher Scientific (Hampton, NH). Soaking agents for lenses included phosphate buffered saline (PBS), 1 M HEPES, a HEPES buffer solution containing sodium chloride, calcium chloride, magnesium chloride, and potassium phosphate were all purchased from Fisher Scientific (Hampton, NH). Commercial contact lenses Acuvue Oasys (14 mm diameter, 8.4 mm base curve, 0.0 power) were used in the study.
Lens Preparation: Contact lenses were loaded by soaking in a Nile Blue A dye solution (1 mg/mL) in DI water for two days. To investigate the effect of buffer, lenses were soaked in either pure HEPES or HEPES buffer for 10 minutes prior to placement on the cadaver eyes. The molecular weight of HEPES is 238 allowing rapid uptake by the contact lenses. […]
In order to quantify drug delivery, diffusion efficacy was measured by simultaneous comparison of four separate eyes, each corresponding to a different condition. […]

Series [3] in a line: Ex vivo iontophoretic delivery of Nile Blue to the posterior eye segment (confocal microscopy).
Description: as §1, §2
as §3, with “current. […]” for “current.”

Regarding `O=C1OC2(c3ccc(O)cc3Oc3cc(O)ccc32)c2ccccc21` [Fluorescein], the “Flux (time averaged)” value was 7.18 kg/m^2s [×10^7] in series [1] (1 hr 0.125 mA), 14.93 kg/m^2s [×10^7] in series [1] (1 hr 0.250 mA) and 6.46 kg/m^2s [×10^7] in series [1] (2 hr 0.125 mA). The “Concentration in Vitreous” value in series [1] (1 hr 0.125 mA) came to 33.8 ng/mL; in series [1] (1 hr 0.250 mA), 70.4 ng/mL; in series [1] (2 hr 0.125 mA), 60.9 ng/mL. In addition, the “electrophoretic velocity from the data of Table 3” value in series [1] (high current (0.25 mA) experiments) is listed as approximately 2.6 μm/s; in series [1] (low current (0.125 mA) experiments), approximately 1.3 μm/s.
Regarding `CC[N+](CC)=c1ccc2nc3c(cc(N)c4ccccc43)oc-2c1` [Nile Blue A dye], the “Nile Blue A dye present throughout the cornea (confocal)” value in series [2] (diffusion only, no electric field, from contact lens or standing solution, after 1 hr) is “very minor amounts”. Also, in series [2] (lenses loaded in DI water, all current and time conditions (0.25 or 0.125 mA, 30 or 60 min)), the “Nile Blue A dye delivered to the cornea (ROI analysis)” value is on record as “significant quantities”. In addition, the “distribution of Nile Blue A dye across sclera, choroid, and retina” value in series [3] (all applied currents and times) is recorded as “uniform”. The “damage to the posterior eye segment (confocal imaging)” value in series [3] (hybrid lenses: PBS at anode, HEPES at cathode) is on record as “no apparent damage”. For the same molecule, the “transport of Nile Blue A dye across sclera, choroid, and retina (confocal)” value in series [3] (low current and short time duration) is given as “sufficient transport”.

These data come from patent US11998481B2, “Methods and compositions for iontophoretic drug delivery to the eye” (University of Florida Research Foundation, Inc., priority 2018, dated 2024).
